Measured values: patent US12331322B2, “Agent for accelerating growth of pluripotent stem cells” (Oriental Yeast Co., Ltd., priority 2017, dated 2025)

How the values were obtained:
[1] = test system: iPS cells (201B7); assay: Alkaline phosphatase measurement test (undifferentiated marker) on iPS cells (201B7); format: cell-based, human; settings: Example 4, FIG. 5, β-NMN up to 1 mM added with ROCK inhibitor, vs β-NMN-free medium
Experimental: iPS cells were cultured in a culture medium containing β-NMN, and the effects of β-NMN on differentiation potential and growth were examined. As iPS cells, a 201B7 line was used. The differentiation potential was examined using the enzyme activity of alkaline phosphatase, which is an undifferentiated marker, as an indicator. First, the iPS cells cultured in the basal medium used in Example 1 were separated from a culture vessel by a cell-peeling solution and recovered. The recovered cells were counted and seeded in each well of a Matrigel-coated 96-well plate at 2000 cells/well. At this time, the ROCK inhibitor and β-NMN having a final concentration of 0 to 1 mM were added to each well. The cells in 96-well plate was cultured at 37° C. for 1 day to allow the cells to adhere, and then the medium containing the ROCK inhibitor was removed from each well, the medium was replaced with a medium obtained by adding, to the basal medium, β-NMN so that a final concentration became 0 to 1 mM, and culturing was performed for 3 to 4 days. During this period, the medium was replaced daily. […] After drying the wells, a bicarbonate buffer containing […], which is an alkaline phosphatase measurement reagent, was added and incubated at 37° C. for 30 minutes, and then absorbance at 405 nm was measured using a microplate reader.

[2] = test system: Human mesenchymal stem cells (human MSCs); assay: WST assay, proliferative activity of human mesenchymal stem cells; format: cell-based; settings: 72 hours
Experimental: Human MSCs purchased from Lonza were used. As a basal medium for human MSCs, a dedicated maintenance medium purchased from Lonza was used. Human MSCs were seeded in 96-well plates (Nunc) at 2×10^3 cells/well (n=3 to 4). They were cultured at 37° C. in a CO2 incubator to allow them to adhere, and then β-NMN (manufactured by Oriental Yeast Co., Ltd.) was added so that a final concentration became 1.0, 0.1, 0.01, or 0.001 mM, and culture was further performed at 37° C. in a CO2 incubator for 72 hours. Thereafter, proliferative activity of cells in each well was measured with WST assay. Specifically, after adding a viable cell count reagent SF (Nacalai Tesque) to each well and incubating at 37° C. for 1 to 4 hours, absorbance at 450 nm was measured with the reference wavelength at 620 nm using a microplate reader (absorbance values at 450 nm (ref. 620 nm) (BMG LABTECH). The term “absorbance values at 450 nm (ref. 620 nm)” is an absorbance value at 450 nm using an absorbance value at 620 nm as a reference value, and is specifically a value obtained by subtracting an absorbance value at 620 nm from an absorbance value at 450 nm. [0045]

[3] = test system: iPS cells (201B7); assay: WST assay, growth of iPS cells (201B7) in culture medium with β-NMN or NAM; format: cell-based, human; settings: for absorbance values at 450 nm (ref. 595 nm), WST assay, compared with basal medium: Example 2, FIG. 2, 0.2 or 0.4 mM added to E8 medium
Experimental: As iPS cells, 201B7 line which is human iPS cells was used. For iPS cells, an E8 medium (LTC) containing 19.4 mg/L of insulin, 10.7 mg/L of transferrin, 100 μg/L of bFGF, 2 μg/L of TGFβ, 14 μg/L of sodium selenite, 64 mg/L of ascorbic acid, and 543 mg/L of NaHCO3 in DMEM/F12 was used as the basal medium. First, iPS cells cultured in the basal medium were separated from a culture vessel by a cell-peeling solution and recovered. The recovered cells were counted and seeded in each well of a Matrigel-coated 96-well plate at 1000 to 2000 cells/well. At this time, a ROCK inhibitor was added to each well. The 96-well plate was cultured at 37° C. for 1 day to allow the cells to adhere, and then the medium containing the ROCK inhibitor was removed from each well, the medium was replaced with a medium obtained by adding, to the basal medium, β-NMN (Oriental Yeast Co., Ltd.) so that a final concentration became 0 to 2 mM, and culturing was performed for 3 to 4 days. Thereafter, a growth ability of cells surviving in each well was measured by water-soluble tetrazolium salts (WST) assay. Specifically, after adding WST-1 (manufactured by Nacalai Tesque) to each well and incubating at 37° C. for 1 to 4 hours, absorbance values at 450 nm (ref. 595 nm) were measured using a microplate reader (manufactured by BMG LABTECH). The term “absorbance value (450 to 595 nm)” is an absorbance value at 450 nm using an absorbance value at 595 nm as a reference value, and is specifically a value obtained by subtracting an absorbance value at 595 nm from an absorbance value at 450 nm. Specifically, iPS cells were cultured and the WST assay was performed in the same manner as in Example 1 except that the medium added after removing the medium containing the ROCK inhibitor was changed to a culture medium to which β-NMN was added so that a final concentration became 0, 0.2, or 0.4 mM, or a culture medium to which NAM was added so that a final concentration became 0, 0.2, or 0.4 mM. The iPS cells cultured in the basal medium used in Example 1 were separated from a culture vessel by a cell-peeling solution and recovered. The recovered cells were counted and seeded in each well of a Matrigel-coated 96-well plate at 1000 to 2000 cells/well. At this time, a ROCK inhibitor and β-NMN having a final concentration of 0 to 1 mM were added to each well. The cells in 96-well plate was cultured at 37° C. for 1 day to allow the cells to adhere, and then the medium containing the ROCK inhibitor was removed from each well, the medium was replaced with a culture medium obtained by adding, to the basal medium, β-NMN so that a final concentration became 0 to 1 mM, and culturing was performed for 3 to 4 days. Thereafter, WST assay was performed in the same manner as in Example 1. The results of measuring absorbance values at 450 nm (ref. 595 nm) of each cells cultured in a medium to which both ROCK inhibitor and β-NMN were added are shown in FIG. 4.

[4] = test system: iPS cells (253G1); assay: WST assay, growth of iPS cells (253G1) in culture medium with β-NMN or NAM; format: cell-based; settings: for absorbance values at 450 nm (ref. 595 nm), WST assay, compared with basal medium: Example 3, FIG. 3, added to E8 medium
Experimental: First, iPS cells cultured in the basal medium were separated from a culture vessel by a cell-peeling solution and recovered. The recovered cells were counted and seeded in each well of a Matrigel-coated 96-well plate at 1000 to 2000 cells/well. At this time, a ROCK inhibitor was added to each well. The 96-well plate was cultured at 37° C. for 1 day to allow the cells to adhere, and then the medium containing the ROCK inhibitor was removed from each well, the medium was replaced with a medium obtained by adding, to the basal medium, β-NMN (Oriental Yeast Co., Ltd.) so that a final concentration became 0 to 2 mM, and culturing was performed for 3 to 4 days. Thereafter, a growth ability of cells surviving in each well was measured by water-soluble tetrazolium salts (WST) assay. Specifically, after adding WST-1 (manufactured by Nacalai Tesque) to each well and incubating at 37° C. for 1 to 4 hours, absorbance values at 450 nm (ref. 595 nm) were measured using a microplate reader (manufactured by BMG LABTECH). The term “absorbance value (450 to 595 nm)” is an absorbance value at 450 nm using an absorbance value at 595 nm as a reference value, and is specifically a value obtained by subtracting an absorbance value at 595 nm from an absorbance value at 450 nm. iPS cells were cultured in culture medium containing β-NMN or NAM, and the effects of β-NMN and NAM on growth were compared. As iPS cells, 253G1 line was used. Specifically, iPS cells were cultured and WST assay was performed in the same manner as in Example 1 except that 253G1 line was used instead of 201B7 line.

[5] = test system: iPS cells (201B7); assay: Flow cytometry of undifferentiated markers (SSEA4, low sulfated keratan sulfate) in iPS cells (201B7); format: cell-based, human; settings: 5 or more passages, vs 0 mM
Experimental: The differentiation potential of iPS cells maintained and grown in the presence of β-NMN was confirmed. As iPS cells, a 201B7 line was used. Specifically, iPS cells were seeded in a 35 mm dish coated with Matrigel (Corning) at 1.5×10^4 cells/dish. As culture medium in which β-NMN was added to a basal medium (E8 medium) of iPS cells so that a final concentration became 0, 0.25, or 1 mM was used. At the time of seeding, Rho-dependent apoptosis was suppressed using a culture medium to which a Rock inhibitor was added so that a final concentration became 10 μM. The medium was replaced daily and the cells were passaged on day 5 and 6. iPS cells cultured for 5 or more passages in the medium to which β-NMN was added were stained with each of antibodies against SSEA4 and against low sulfated keratan sulfate which are undifferentiated markers, and cells expressing the undifferentiated markers were analyzed with a flow cytometer.

Structure (SMILES)	absorbance values at 405 nm, alkaline phosphatase measurement test [1]	proliferative activity of human MSCs (absorbance, WST assay), overall ([2]; addition of β-NMN 0.001 to 1.0 mM)	Absorbance value at450 nm (ref. 620 nm) ([2]; β-NMN concentration 0.001 mM)	Absorbance value at450 nm (ref. 620 nm) ([2]; β-NMN concentration 0.01 mM)	Absorbance value at450 nm (ref. 620 nm) ([2]; β-NMN concentration 0.1 mM)	Absorbance value at450 nm (ref. 620 nm) ([2]; β-NMN concentration 1 mM)	absorbance values at 450 nm (ref. 595 nm), WST assay ([3]; Example 1, FIG. 1, medium containing 0.1 mM or more of β-NMN vs β-NMN-free medium, 3 to 4 days)	absorbance values at 450 nm (ref. 595 nm), WST assay ([3]; Example 1, FIG. 1, β-NMN 0.8 mM or more)	absorbance values at 450 nm (ref. 595 nm), WST assay ([3]; Example 1, FIG. 1, β-NMN 0.1 to 0.2 mM)	absorbance values at 450 nm (ref. 595 nm), WST assay ([3]; Example 1, FIG. 1, β-NMN 0.2 to 0.6 mM)	absorbance values at 450 nm (ref. 595 nm), WST assay, compared with basal medium [3]	absorbance values at 450 nm (ref. 595 nm), WST assay, β-NMN-added medium compared with NAM-added medium ([3]; Example 2, FIG. 2, final concentration 0.2 mM and 0.4 mM)	absorbance values at 450 nm (ref. 595 nm), WST assay (effect on growth) ([3]; Example 4, FIG. 4, β-NMN 0 to 1 mM added together with ROCK inhibitor at seeding and afterwards)	absorbance values at 450 nm (ref. 595 nm), WST assay, compared with basal medium [4]	absorbance values at 450 nm (ref. 595 nm), WST assay, β-NMN-added medium compared with NAM-added medium ([4]; Example 3, FIG. 3, final concentration 0.2 mM and 0.4 mM)	Expression of SSEA4 (flow cytometry, anti-SSEA4 antibody) ([5]; Example 6, FIGS. 6 to 8, 0.25 mM or 1 mM of β-NMN)	Expression of low sulfated keratan sulfate (flow cytometry, R10G antibody) ([5]; Example 6, FIGS. 9 to 11, 0.25 mM or 1 mM of β-NMN)
NC(=O)c1ccc[n+]([C@@H]2O[C@H](COP(=O)([O-])O)[C@@H](O)[C@H]2O)c1 [β-NMN, β-nicotinamide mononucleotide]	higher than that of the cells cultured in the β-NMN-free medium	increased the absorbance value and accelerated proliferative activity	0.573 ± 0.0312	0.604 ± 0.0587	0.634 ± 0.0411	0.615 ± 0.0340	greater than that of the cells cultured in the β-NMN-free medium	tended to slightly decrease	increased in a concentration-dependent manner	the absorbance value was the same	higher absorbance values than cells cultured in the basal medium	significantly higher than that of the cells cultured in the NAM-added medium	growth-accelerating effect on iPS cells was obtained in a β-NMN concentration-dependent manner	higher absorbance value than that of the cell cultured in the basal medium	significantly higher than that of the cells cultured in the NAM-added medium	maintained	maintained
NC(=O)c1cccnc1 [NAM, nicotinamide, reference compound]											higher absorbance values than cells cultured in the basal medium			slightly higher absorbance value than that of the cells cultured in the basal medium			
